Results as given in US20260207626A1, “SYNTHETIC TRITERPENOIDS AND COMPOSITIONS THEREOF IN WEIGHT MANAGEMENT, SKELETAL MUSCLE FUNCTION, AND APPETITE SUPPRESSION” (The Board of Regents of the University of Texas System, priority 2022, published 2026).
“Also recorded” adds a separate entry of the source.

Legend:
Assay type in all cases: cell-based, rat
p65 NF-κB = test: NF-κB p65 nuclear translocation (immunofluorescence and subcellular fractionation) in L6-GLUT4myc myotubes
Description: NF-κB is bound to IκB-α in the cytoplasm. Upon activation of the IKK/NF-κB/IκB pathway, IκB is degraded, freeing NF-κB to translocate into the nucleus and activate the transcription of pro-inflammatory mediators. To visualize the localization of NF-κB, immunofluorescence and confocal microscopy studies were performed in L6-GLUT4myc myo-tubes pre-treated with CDDO-EA for 1 h and then exposed to LPS for 1 h. The untreated muscle cells show a basal-level expression of p65 NF-κB in the nucleus (FIG. 14A).
For subcellular fractionation, differentiated L6-GLUT4myc myotubes were pre-treated with CDDO-EA 500 nM for 1 h follow by LPS 100 ng/ml (E. coli O111: B4, Sigma Aldrich) treatment for 1 h, and the nuclear and cytosolic fractions were isolated using the Nuclear Extraction Kit (Panomics) according to the manufacturer's instructions. The extracted fractions were then analyzed by Western blotting as described.
Immunofluorescence microscopy: L6-GLUT4myc myoblasts (4×10^4 cells/ml, 0.2 ml/well) were plated onto Nunc Lab-TekII 8-chamber slides (Thermo Fisher Scientific) and differentiated for 7 days. Myotubes were pre-treated with CDDO-EA 500 nM for 1 h followed by LPS 100 ng/ml (E. coli O111: B4, Sigma Aldrich) treatment for 1 h. […]

MCP-1 [1] = test: Quantitative RT-PCR of LPS-induced MCP-1 mRNA in L6-GLUT4myc myotubes; details: 500 nM CDDO-EA 1 hr then 100 ng/ml LPS 1 hr
Description: Quantitative RT-PCR: L6-GLUT4myc myoblasts (4×10^4 cell/ml, 2 ml/well) were seeded on a 6-well plate and differentiated into myo-tubes with differentiation medium for 7 days. Myotubes were pre-treated with CDDO-EA 500 nM for 1 h followed by LPS 100 ng/ml (E. coli O111: B4, Sigma Aldrich) treatment for 1 h. RNA was isolated from treated myotubes using TRIzol reagent (Ambion) according to the manufacturer's instructions. Validated RT-PCR primers specific for rat TNF-α (Assay ID: Rn99999017_m1) and rat MCP-1 (Assay ID: Rn00580555_m1), or rat GAPDH (Assay ID: Rn99999916_s1) were used to quantify mRNA levels using TaqMan RNA-to-CT 1-Step Kit (Thermo Fisher Scientific), Real-time PCR was carried out using an AB7900HT Fast Real-Time PCR System (Applied Biosystems), and MCP-1 and TNF-α levels were calculated using the ΔΔCT method according to the manufacturer's instructions.

MCP-1 [2] = test: RT-PCR of PA-induced MCP-1 gene expression in L6-GLUT4myc myotubes; details: CDDO-EA 500 nM 1 h then PA 400 μM 6 h
Description: L6-GLUT4myc myotubes were pretreated with CDDO-EA (500 nM, 1 h) and treated PA (400 μM, 6 h). TNF-α and MCP-1 gene expression were measured by RT-PCR. Data are represented as +SEM *P<0.05 vs. control, ^#P<0.05 vs. control. * P<0.05 vs. LPS, $P<0.05 vs. PA. (One-Way ANOVA).

CCNC(=O)[C@]12CCC(C)(C)C[C@H]1C1C(=O)C=C3[C@@]4(C)C=C(C#N)C(=O)C(C)(C)[C@@H]4CC[C@@]3(C)[C@]1(C)CC2 (stereo partly drawn) [CDDO-EA, (4aS,6aR,6bS,8aR,12aS,14bS)-11-cyano-N-ethyl-2,2,6a,6b,9,9,12a-heptamethyl-10,14-dioxo-1,3,4,5,6,6a,6b, 7,8,8a,9,10,12a, 14,14a, 14b-hexadecahydropicene-4a (2H)-carboxamide]
LPS-induced p65 NF-κB nuclear translocation (p65 NF-κB; 500 nM CDDO-EA 1 hr then 100 ng/ml LPS 1 hr): reduces LPS-induced p65 NF-κB nuclear staining; also recorded: decreased both cytoplasmic and nuclear localization of p65 NF-κB; also recorded: prevented NF-κB translocation to the nucleus
NF-κB activation (p65 NF-κB; CDDO-EA alone, no LPS): had no effect on NF-κB activation
LPS-induced MCP-1 mRNA expression (MCP-1 [1]): lowered LPS-induced mRNA levels of TNF-α and MCP-1; also recorded: blocked the mRNA expression of LPS-induced TNF-α and MCP-1; also recorded: reduced LPS-induced TNF-α and MCP-1 gene expression levels; also recorded: inhibits LPS-inducted TNF-α and MCP-1 gene expression
PA-induced MCP-1 gene expression (MCP-1 [2]): inhibits PA-induced NF-κB activation and MCP-1 and TNF-α gene expression; also recorded: blocks TNF-α and MCP-1 gene expression
